BindingDB's records for doi:10.3109/14756366.2012.763163 (Atatürk University, 2014)
pKi: −log10 of the molar value. Structures can show the parent of a compound that is named as a salt.

Tests used:
Carbonic anhydrase 1 = Carbonic anhydrase 1 (Homo sapiens, UniProt P00915); assay: Esterase Activity Assay; conditions: pH 7.4; 25 °C
Description: (§1) CA activity was assayed by following the change in absorbance at 348 nm of 4-nitrophenylacetate (NPA) to 4-nitrophenylate ion over a period of 3 min at 25 °C using a spectrophotometer (Shimadzu, UVmini-1240 UV-VIS spectrophotometer) according to the method described by Verpoorte et al.37 The enzymatic reaction contained 1.4mL 0.05M Tris-SO4 buffer (pH 7.4), 1mL 3mM 4-NPA, 0.5mL H2O and 0.1mL enzyme solution (total volume, 3.0 mL). A reference measurement was obtained bypreparing the mixture without the enzyme solution. All measurements were recorded in triplicate.

Carbonic anhydrase 2 = Carbonic anhydrase 2 (Homo sapiens, UniProt P00918); assay: Esterase Activity Assay; conditions: pH 7.4; 25 °C
Description: as §1

Chain of Carbonic anhydrase 1 (P00915 whole entry): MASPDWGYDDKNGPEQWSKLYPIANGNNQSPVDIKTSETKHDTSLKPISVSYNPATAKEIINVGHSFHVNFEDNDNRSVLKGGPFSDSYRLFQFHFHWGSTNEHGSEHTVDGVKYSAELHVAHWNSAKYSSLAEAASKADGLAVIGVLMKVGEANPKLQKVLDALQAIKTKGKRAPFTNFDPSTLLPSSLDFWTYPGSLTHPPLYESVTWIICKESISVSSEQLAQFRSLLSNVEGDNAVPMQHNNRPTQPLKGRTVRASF

Structure (SMILES) | pKi (Carbonic anhydrase 1) | pKi (Carbonic anhydrase 2)
COc1ccc(C(N)c2cccc(OC)c2OC)cc1OC (centres undefined) [(2,3-Dimethoxyphenyl)(3,4-dimethoxyphenyl)methanamine hydrochloride (25)] | 4.17 | 4.13
COc1ccc(C(N)c2ccc(OC)c(OC)c2)c(OC)c1 (centres undefined) [(2,4-Dimethoxyphenyl)(3,4-dimethoxyphenyl)methanamine hydrochloride (23)] | 4.44 | 4.46
COc1ccc(C(N)c2cc(OC)c(OC)cc2C)cc1OC (centres undefined) [(4,5-Dimethoxy-2-methylphenyl)(3,4-dimethoxyphenyl)methanamine hydrochloride (24)] | 4.40 | 4.32
COc1ccc(C(NS(C)(=O)=O)c2cccc(OC)c2OC)cc1OC (centres undefined) [N-((2,3-dimethoxyphenyl)(3,4-dimethoxyphenyl)methyl)methanesulfonamide (28)] | 5.43 | 5.03
COc1ccc(C(NS(C)(=O)=O)c2cc(OC)c(OC)cc2C)cc1OC (centres undefined) [N-((4,5-dimethoxy-2-methylphenyl)(3,4-dimethoxyphenyl)methyl)methane sulfonamide (27)] | 4.31 | 4.72

The remaining lines, values ahead:

pKi (Carbonic anhydrase 1) | pKi (Carbonic anhydrase 2) | Structure (SMILES)
4.59 | 4.74 | COc1ccc(C(NS(C)(=O)=O)c2ccc(OC)c(OC)c2)cc1OC [N-(bis(3,4-dimethoxyphenyl)methyl)methanesulfonamide (26)]
4.86 | 4.81 | COc1ccc(C(N)c2ccc(OC)c(OC)c2)cc1OC [bis(3,4-dimethoxyphenyl)methanamine hydrochloride (22)]
